Structures are written as SMILES. “Also recorded” adds a separate entry of the source.

What all share (format): in vivo
Experiment [1] deals with peripheral B cells (IgM+B220+). As to the kind of experiment: Peripheral B cells by flow cytometry in treated NZB/W mice. Conditions: 38-week-old NZB/W mice, either low (5 mg/kg) or high (20 mg/kg) dose. The method, then:
(§1) NZB/W mice were injected intraperitoneally 5 days/week with the vehicle control (DMSO), ACY-738 treatment at 5 mg/kg (low-dose), or ACY-738 treatment at 20 mg/kg (high-dose) beginning at 22-weeks-of-age until euthanization at 38 weeks-of-age. ACY-738 was received from Acetylon Pharmaceuticals for use in all studies. Proteinuria and weight were measured every 2 weeks and blood was collected every four weeks for sera analysis. Proteinuria was measured by a standard semi-quantitative test using Siemens Uristix dipsticks (Siemens Healthcare, Deerfield, Ill., USA). Results were quantified according to the manufacturer's instructions and scored as follows: dipstick reading of 0 mg/dL=0, trace=1, 30-100 mg/dL=2, 100-300 mg/dL=3, 300-2000 mg/dL=4, and 2000+ mg/dL=5.
Blood was collected prior to euthanization using retro-orbital bleeding. RBCs from the peripheral blood were lysed and single cell suspensions were labeled using FITC-conjugated B220 and PerCep710 conjugated IgM anti-mouse mAbs (eBioscience, San Diego, Calif., USA). Mature B cells were identified as IgM^+B220^+ cells. Flow cytometry data was analyzed using FlowJo.
Similarly, a single-cell suspension of peripheral B cells was obtained from the blood of 38-week-old NZB/W mice and stained for IgM and B220. […]
For orientation: In flow cytometry, cells or beads pass a laser one at a time.

A further experiment concerns NZB/W mice. In words: Survival rate and disease progression (body weight, proteinuria, spleen weight) in NZB/W mice. Conditions: for proteinuria: every 2 weeks. How it is done: as §1
However, half of the NZB/W mice receiving the vehicle control alone died before termination of the study at 38 weeks-of-age (FIG. 6 A). Body weight increased as NZB/W mice aged following treatment with ACY-738. Vehicle control-treated NZB/W mice experienced weight loss concomitantly with increased proteinuria (FIG. 6 B).
Throughout the treatment period, NZB/W mice were monitored for changes in proteinuria and body weight.
Because SLE is characterized by enlargement of the spleen, splenomegaly was assessed in mice following euthanization by determining the total spleen weight along with the spleen: body weight ratio. Both spleen weight and spleen: body weight ratio were decreased following HDAC6 inhibition in a concentration dependent manner (FIG. 6 D-E).

Another experiment relates to splenic B cells. As to the kind of experiment: Splenic B cell developmental stages by flow cytometry in treated NZB/W mice. Particulars: either low (5 mg/kg) or high (20 mg/kg) dose. The method, then:
as §1
Following euthanization, spleens were removed and single-cell suspensions of splenocytes were incubated with PerCP710 conjugated IgM, FITC conjugated AA4.1, PE conjugated CD23, and APC conjugated CD21 anti-mouse mAbs (eBioscience, San Diego, Calif., USA). IgM^+ cells were analyzed for the expression of AA4.1, CD23 and CD21 and divided into the following developmental stages using flow cytometry: T1 (IgM^+ CD23^− AA4.1^+ CD21^−), T2 (IgM^hi CD23^+ AA4.1^+ CD21^+), T3 (IgM^lo CD23^+ AA4.1^+ CD21^+), F0 (IgM^+ CD23^+ AA4.1^− CD21^−), MZ (IgM^+ CD23^− AA4.1^− CD21^+) or B1 (IgM^+ CD23^− AA4.1^− CD21^−). […]

Another experiment relates to thymic T cells. In words: Thymic T cell development by flow cytometry in treated NZB/W mice. Conditions: 16 weeks of treatment. How it is done:
as §1
A single-cell suspension was obtained from the thymuses and spleens of treated NZB/W mice at 38 weeks-of-age. Briefly, the thymus was removed from each NZB/W mouse and dissociated across a sterile wire mesh in a petri dish containing ice-cold RPMI 1640 medium (Thermo Scientific). RBCs were lysed using RBC lysis buffer and cells were pelleted and washed with PBS. Splenocytes were stained with APC-conjugated CD3, FITC-conjugated CD4, eFluor450 (eF450)-conjugated CD8a, PerCP-CY5.5-conjugated CD25, and PE-conjugated Foxp3. Thymocytes were stained with APC-CD3, FITC-CD4, and PE-CD8 anti-mouse mAbs (eBioscience, San Diego, Calif., USA). Fluorescence was measured using a FACScan flow cytometer and data was analyzed by FlowJo software.
FIG. 4A depicts representative flow cytometry images of thymocytes gated on CD3 and labeled with CD4 and CD8.

[2] abbreviates: NZB/W mice after euthanization at 38 weeks, 5 and 20 mg/kg, concentration dependent.

Take `O=C(NO)c1cnc(NC2(c3ccccc3)CC2)nc1` [ACY-738]: in experiment [1], the “percentage of peripheral B cells (IgM+B220+)” value was “no effect”. In the experiment with NZB/W mice (setting [2]), the spleen weight result is “decreased” and the “spleen: body weight ratio” value is on record as “decreased”. The body weight result in the experiment with NZB/W mice (NZB/W mice, 22-38 weeks-of-age, vehicle mice lost weight) is “increased”. Besides, in the experiment on NZB/W mice (NZB/W mice, high (20 mg/kg) or low (5 mg/kg) dose, to 38 weeks-of-age, half of vehicle mice died), the survival result is “survived to the completion of the study”. For the same compound, the proteinuria result in the experiment on NZB/W mice (NZB/W mice, high dose 20 mg/kg, 22-38 weeks-of-age, 20 mg/kg) was “prevented proteinuria from increasing; also recorded: significantly attenuated”. In the experiment with NZB/W mice (NZB/W mice, low dose 5 mg/kg, 22-38 weeks-of-age), the proteinuria result is “gradually increased”. Besides, the “splenic B cell populations (T1, T2, T3, F0, MZ, B1)” value in the experiment with splenic B cells is given as “did not significantly affect; also recorded: no effect”. The “percentage of DN (CD3+CD4-CD8-) thymic T cells” value in the experiment on thymic T cells (NZB/W mice at 38 weeks-of-age, 5 and 20 mg/kg) is “decreased the percentage of DN T cells in a dose-dependent manner; also recorded: reduced”. Moreover, in the experiment on thymic T cells (NZB/W mice at 38 weeks-of-age), the “percentage of CD3+CD4+CD8- single positive thymic T cells” value is on record as “substantial decrease” and the “percentage of CD3+CD4-CD8+ single positive thymic T cells” value is “substantial decrease”. In addition, the “double positive (CD3+CD4+CD8+) thymic T cell numbers” value in the experiment on thymic T cells (NZB/W mice, 5 and 20 mg/kg) was “increased in a dose-dependent manner”.

(Values after patent publication US20160228434A1, “TREATMENT OF DISEASES CAUSED BY ABNORMAL LYMPHOCYTE FUNCTION WITH AN HDAC6 INHIBITOR” (priority 2013, published 2016).)
